The text below walks through data of ChEMBL document CHEMBL4257544, “Synthesis and biological evaluation of novel asymmetric naphthalene diimide derivatives as anticancer agents depending on ROS generation” (Medchemcomm, 2018).

In one data set the test system is HCT-116. The data set can be described thus: Cytotoxicity against human HCT116 cells after 48 hrs by MTT assay. It is filed as functional, cell-based. The following applies: HCT-116, 48 h. For orientation: Tetrazolium assays rely on reduction of a dye to a coloured formazan, in cell work by metabolically active cells.
For a further data set, the system named is MDA-MB-231. In words: Cytotoxicity against human MDA-MB-231 cells after 48 hrs by MTT assay. It is filed as functional, cell-based. The following applies: MDA-MB-231, 48 h.
For a further data set, the system named is MCF7. The data set can be described thus: Cytotoxicity against human MCF7 cells after 48 hrs by MTT assay. It is filed as functional, cell-based. The following applies: MCF7, 48 h.
The subject of a further data set is HepG2. In words: Cytotoxicity against human HepG2 cells after 48 hrs by MTT assay. Type of data set: functional, cell-based. The settings on record: HepG2, 48 h.
Another data set relates to SMMC-7721. The data set can be described thus: Cytotoxicity against human SMMC7721 cells after 48 hrs by MTT assay. Type of data set: functional, cell-based. The settings on record: SMMC-7721, 48 h.
Data set [1] is described as follows: Solubility of the compound. Type of data set: physicochemical.

Each structure is given as a SMILES string. pIC50: −log10 of the molar value.

Regarding `CCCCN1C(=O)c2ccc3c4c(ccc(c24)C1=O)C(=O)N(c1cccnc1)C3=O`, the pIC50 is 4.44 in the data set on HCT-116; below 4.30 in the data set with MDA-MB-231; below 4.30 with MCF7; 4.45 with HepG2; 4.42 with SMMC-7721.
Take `CCCCN1C(=O)c2ccc3c4c(ccc(c24)C1=O)C(=O)N(CC(C)C)C3=O`: the solubility entry in data set [1] is given as “Insoluble”. Besides, the negative-log IC50 (pIC50) in the data set with HCT-116 was 4.55; in the data set on MDA-MB-231 it was below 4.30; with MCF7 it was 4.40; in the data set on HepG2, 4.34; in the data set on SMMC-7721 it was 4.44.
On to `CCCCN1C(=O)c2ccc3c4c(ccc(c24)C1=O)C(=O)N(CCCN1CCOCC1)C3=O`, for which the pIC50 in the data set on HCT-116 was 4.49; with MDA-MB-231 it was 4.74; in the data set with MCF7, 4.67; in the data set with HepG2, 4.51; with SMMC-7721, 4.60.
Consider `CCCCN1C(=O)c2ccc3c4c(ccc(c24)C1=O)C(=O)N(C1CCCCC1)C3=O`, for which the solubility result in data set [1] is “Insoluble”. Further, the negative-log IC50 (pIC50) was 4.34 with HCT-116; below 4.30 with MDA-MB-231; below 4.30 in the data set on MCF7; below 4.30 in the data set with HepG2; below 4.30 in the data set with SMMC-7721.
Consider `CCCCN1C(=O)c2ccc3c4c(ccc(c24)C1=O)C(=O)N(C1CC1)C3=O`, for which, in data set [1], the solubility result is reported as “Insoluble”. For the same compound, the pIC50 in the data set on HCT-116 is 4.79; with MDA-MB-231, below 4.30; in the data set with MCF7, below 4.30; with HepG2 it was below 4.30; in the data set on SMMC-7721, below 4.30.
For the compound `CCCCN1C(=O)c2ccc3c4c(ccc(c24)C1=O)C(=O)N(c1ncccn1)C3=O`, the pIC50 with HCT-116 was 5.04; with MDA-MB-231, 4.82; in the data set on MCF7, 4.90; with HepG2, 4.77; in the data set with SMMC-7721, 4.45.
The corresponding values for `CN(C)CCN1C(=O)c2cccc3cc(N)cc(c23)C1=O` [AMONAFIDE] are 5.19, 5.18, 4.89, 5.02 and 5.03.
Consider `CCCCN1C(=O)c2ccc3c4c(ccc(c24)C1=O)C(=O)N(CCC)C3=O`, for which, in data set [1], the solubility result is on record as “Insoluble”. Further, the pIC50 with HCT-116, in the data set with MDA-MB-231, with MCF7, in the data set on HepG2 and with SMMC-7721 was below 4.30 each time.
Turning to `CC(C)CN1C(=O)c2ccc3c4c(ccc(c24)C1=O)C(=O)N(CCCO)C3=O`, the negative-log IC50 (pIC50) was 5.08 in the data set with HCT-116; 5.27 in the data set on MDA-MB-231; 5.32 in the data set on MCF7; 5.38 in the data set on HepG2; 5.42 in the data set on SMMC-7721.
`CCCCN1C(=O)c2ccc3c4c(ccc(c24)C1=O)C(=O)N(CC1CC1)C3=O`: the solubility entry in data set [1] is “Insoluble”. Further, the negative-log IC50 (pIC50) was 4.49 with HCT-116; below 4.30 in the data set with MDA-MB-231; below 4.30 in the data set with MCF7; below 4.30 in the data set on HepG2; below 4.30 in the data set with SMMC-7721.
Regarding `O=C1c2ccc3c4c(ccc(c24)C(=O)N1CCCO)C(=O)N(CCCN1CCOCC1)C3=O`, the pIC50 is 5.36 in the data set with HCT-116; 5.12 in the data set with MDA-MB-231; 5.16 with MCF7; 5.51 in the data set on HepG2; 5.57 in the data set with SMMC-7721.
In the case of `CN(C)CCCN1C(=O)c2ccc3c4c(ccc(c24)C1=O)C(=O)N(CCCO)C3=O`, the pIC50 with HCT-116 was 5.28; in the data set with MDA-MB-231, 5.21; in the data set with MCF7 it was 5.47; with HepG2 it was 5.22; in the data set with SMMC-7721 it was 5.35.

In general, pIC50 refers to the IC50 on a negative log10 scale, so that one unit is a factor of ten. Read a high pIC50 as a small IC50.
